Results on six compounds are retold here after patent EP2711007A1, “4-Aminopyrazolo[3,4-d]pyrimidine for use in treating or preventing primary and metastatic breast and prostate cancer” (Institut Univ. de Ciència i Tecnologia, S.A., priority 2012, dated 2014).

Assay [1] deals with MCF-7 breast cancer cell line. Description: Tetrazolium dye proliferation (WST-1) assay, MCF-7. Format: cell-based. More on the design: proliferation inhibitory effect compared with Gemcitabine: concentration or dose not given beside the values. The following applies: 5 days incubation; for proliferation inhibitory effect compared with Gemcitabine: Gemcitabine set to 0, negative = less inhibition than Gemcitabine; for inhibition at 1 µM: Homo sapiens, MCF7, 120 h, concentration not given (primary screen 1 microM), mean±SD, read-out: proliferation inhibitory effect compared with 0.1 % DMSO vehicle control group. On the procedure: (§1) Determination of the ability of compound of formula (I) and combinations between compound of formula (I) and certain therapeutic compounds described herein to inhibit the proliferation of target cells was assayed in vitro against breast and prostate tumour cells. The antiproliferative activity was measured through the commercial WST-1 proliferation measurement reagent in a two-step screening procedure: […] MCF-7 and LNCaP cells were purchased from ATCC. PNT1A cells were purchased from ECACC. The cells were grown in a subconfluent condition to maintain a logarithmic growth phase. The cells were dislodged for passage using trypsin-EDTA. The proliferation of the cell lines was evaluated by using the commercial WST-1 proliferation measurement reagent. Cells from exponentially growing cultures were plated on the 96 well plates at the appropriate seeding density in the optimal medium to give logarithmic growth over the course of the assay. The plates with MCF-7 and PNT1A cells were incubated 24h at 37°C in a humidified CO2 atmosphere to allow for recovery from trypsinization before adding of test and control compounds. […] Control compounds Ara-C and Gemcitabine stock solutions were prepared in sterile water. Each test and control compound was diluted twice the final concentration in appropriate media. Half of the final well volume of each dilution was added in six parallels to plates containing cells. […] The plates were returned to 37°C in a humidified CO2 atmosphere and incubated for 5 days. […] Following incubation the absorbance at a wavelength of 450nm was measured from each well using a multilabel counter. The absorbance at wavelength 450nm correlates linearly to number of viable cells in the well. The means and standard deviations for parallel samples were calculated and plotted as a graph.
(In general: Formazan colour is commonly taken as a measure of viable cells.)

Assay [2] relates to PNT1A immortalized normal prostate cell line. The experiment in a line: Tetrazolium dye proliferation (WST-1) assay, PNT1A. Format: cell-based. The following applies: Homo sapiens, 120 h, 5 days incubation, concentration not given (primary screen 1 microM), mean±SD, read-out: proliferation inhibitory effect compared with 0.1 % DMSO vehicle control group. The procedure:
as §1

The test system of assay [3] is LNCaP prostate cancer cell line. Description: Tetrazolium dye proliferation (WST-1) assay, LNCaP. Format: cell-based. The conditions noted are these: 5 days incubation; for proliferation inhibitory effect compared with Gemcitabine: Gemcitabine set to 0, negative = less inhibition than Gemcitabine; for inhibition at 1 µM: Homo sapiens, 120 h, concentration not given (primary screen 1 microM), mean±SD, read-out: proliferation inhibitory effect compared with 0.1 % DMSO vehicle control group. The procedure:
as §1

In the next assay the test system is acute leukaemia. The following applies: up to 9 patients treated; cited from earlier work.
The next assay concerns pancreatic cancer cells. The experiment in a line: Effect on other cancer cells (pancreatic). Format: cell-based. The conditions noted are these: other type of cancer cells such as pancreatic cancer cells.
Assay [4] has as its system RC and S790 mouse mammary carcinomas. The conditions noted are these: considered non active; cited from earlier work.

Consider `Nc1ccn([C@@H]2O[C@H](CO)[C@@H](O)C2(F)F)c(=O)n1` [Gemcitabine, 2',2'-difluorodeoxycytidine], for which the “proliferation inhibitory effect compared with Gemcitabine” value in assay [1] and in assay [3] was 0% each time. The results for the inhibition at 1 µM in assay [1], in assay [2] and in assay [3] were 80 ± 3.7%, 98.8 ± 0.3% and 71.2 ± 0.8%, respectively.
As for `O=c1[nH]c(=O)n([C@H]2C[C@H](O)[C@@H](CO)O2)cc1F` [Floxuridine], the “proliferation inhibitory effect compared with Gemcitabine” value in assay [1] is reported as -50.4±35.6%; in assay [3], -34.7±3.1%. Moreover, the inhibition at 1 µM in assay [1] was 66.2 ± 8%; in assay [2], 88.3 ± 0.6%; in assay [3], 58.3 ± 1%.
As for “5-Bromo-2'-deoxyuridine (Broxuridine) [Compound E]”, the “proliferation inhibitory effect compared with Gemcitabine” value in assay [1] was -221.1±50.3%.
Consider `Nc1ncnc2[nH]ncc12` [Compound I, 4-Aminopyrazolo[3,4-d]pyrimidine], for which the “proliferation inhibitory effect compared with Gemcitabine” value in assay [1] is listed as 93.8±2.4%; in assay [3], 93.1±0.7%. For the same compound, the inhibition at 1 µM in assay [1] was determined as 98.6 ± 0.5%; in assay [2], 18 ± 2.1%; in assay [3], 97.9 ± 0.5%. In addition, in the assay on acute leukaemia, the “antitumour activity in man” value is reported as “did not demonstrate any antitumour activity in man”. In addition, in the assay on pancreatic cancer cells, the “effect on pancreatic cancer cells” value was “no effect was detected”. For the same compound, the tumor growth inhibition in assay [4] was 10%.
Consider `Nc1ccn([C@@H]2O[C@H](CO)[C@@H](O)[C@@H]2O)c(=O)n1` [Ara-C], for which the inhibition at 1 µM in assay [1] is 78.3 ± 3.9%; in assay [2], 66.5 ± 1.8%; in assay [3] it was 50.1 ± 3.4%.
With “5-Iodo-2'-deoxyuridine (Idoxuridine) [Compound F]”, the “proliferation inhibitory effect compared with Gemcitabine” value in assay [1] is reported as -174.8±33.9%.
